The record followed here is US20260028326A1, “COMPOUND BASED ON ISOINDOLINE-SUBSTITUTED GLUTARIMIDE BACKBONE AND USE THEREOF” (GLUETACS THERAPEUTICS (SHANGHAI) CO., LTD., priority 2022, published 2026).

One assay deals with IKZF1 protein (Homo sapiens (Human), UniProt Q13422+Q96SW2). Briefly: Western-blot assay of substrate protein degradation in hPBMC, IKZF1. The assay is classed as cell-based. Conditions: for residual substrate protein level, IKZF1: hPBMC cells, compound 500 nM, 24 hours, Western blot.
Another assay relates to MM.1S cells. Briefly: Tumor cell proliferation IC50 (CCK-8), MM.1S.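 Also: viability of cultured cells read by CCK-8 reagent after compound exposure, growth inhibition curves fitted to derive IC50.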 To be noted: Homo sapiens, MM1.S, 72 h, read-out: IC50 for inhibiting the proliferation of tumor cells, MM.1S.
In assay [1] the target is human Cereblon WT GST-tagged protein (Homo sapiens (Human), UniProt Q96SW2). Briefly: CRBN-binding affinity, HTRF (CEREBLON BINDING kit). The gist of the method: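 HTRF competition readout: compounds compete with a thalidomide-Re conjugate for GST-tagged wild-type human CRBN detected via Eu-labelled anti-GST antibody. Inhibition rate derived relative to protein-free blank wells.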

Another assay concerns the target GSPT1 protein (Homo sapiens (Human), UniProt P15170+Q96SW2). Briefly: Western-blot assay of substrate protein degradation in hPBMC, GSPT1. Conditions: for residual substrate protein level, GSPT1: hPBMC cells, compound 500 nM, 24 hours, Western blot. The assay is classed as cell-based.
A further assay has as its system CCRF-CEM cells. Nature of the assay: Tumor cell proliferation IC50 (CCK-8), CCRF-CEM.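 Also: cell viability measured with CCK-8 reagent after compound treatment, IC50 taken from plotted growth inhibition curves.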 To be noted: Homo sapiens, 96 h, read-out: IC50 for inhibiting the proliferation of tumor cells, CCRF-CEM.
For a further assay, the system named is Mino cells. Briefly: Tumor cell proliferation IC50 (CCK-8), Mino.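 Also: cell viability assessed with CCK-8 reagent after compound exposure, IC50 derived from plotted growth inhibition curves.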 Conditions: Homo sapiens, 72 h, read-out: IC50 for inhibiting the proliferation of tumor cells, Mino.
A further assay concerns the target IKZF3 protein (Homo sapiens (Human), UniProt Q96SW2+Q9UKT9). Nature of the assay: Western-blot assay of substrate protein degradation in hPBMC, IKZF3. In kind it is cell-based. Conditions: for residual substrate protein level, IKZF3: hPBMC cells, compound 500 nM, 24 hours, Western blot. On the technique in general: In western blotting, separated proteins are transferred to a membrane and probed.

The mark [2] stands for this setting: hPBMC, 24 h, serially diluted 0.03-1000 nM.

Chain of IKZF3 protein (Q9UKT9 whole entry): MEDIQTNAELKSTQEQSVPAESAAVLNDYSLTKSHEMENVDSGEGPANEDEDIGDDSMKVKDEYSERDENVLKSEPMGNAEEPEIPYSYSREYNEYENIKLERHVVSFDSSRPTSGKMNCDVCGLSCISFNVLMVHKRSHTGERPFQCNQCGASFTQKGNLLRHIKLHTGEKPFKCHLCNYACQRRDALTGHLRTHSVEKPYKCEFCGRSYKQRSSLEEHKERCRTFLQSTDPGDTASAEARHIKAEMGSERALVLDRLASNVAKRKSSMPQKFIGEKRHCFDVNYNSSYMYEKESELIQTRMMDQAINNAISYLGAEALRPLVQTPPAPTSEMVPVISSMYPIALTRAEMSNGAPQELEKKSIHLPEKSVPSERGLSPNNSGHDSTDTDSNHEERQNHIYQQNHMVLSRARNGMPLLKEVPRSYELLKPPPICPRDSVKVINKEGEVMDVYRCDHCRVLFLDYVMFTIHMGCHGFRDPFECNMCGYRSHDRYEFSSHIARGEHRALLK
Chain of IKZF3 protein (Q96SW2 whole entry): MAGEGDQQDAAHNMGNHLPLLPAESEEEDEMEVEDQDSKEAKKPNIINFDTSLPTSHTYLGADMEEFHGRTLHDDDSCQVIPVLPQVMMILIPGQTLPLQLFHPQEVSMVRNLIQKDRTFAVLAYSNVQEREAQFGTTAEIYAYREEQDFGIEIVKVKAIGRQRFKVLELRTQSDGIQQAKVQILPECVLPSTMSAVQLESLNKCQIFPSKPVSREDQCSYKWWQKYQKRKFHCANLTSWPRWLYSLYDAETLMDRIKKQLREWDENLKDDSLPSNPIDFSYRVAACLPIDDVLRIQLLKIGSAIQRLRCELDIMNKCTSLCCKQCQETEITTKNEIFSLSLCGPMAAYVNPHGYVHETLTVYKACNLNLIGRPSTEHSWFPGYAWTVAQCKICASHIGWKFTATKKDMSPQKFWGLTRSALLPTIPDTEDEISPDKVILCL
Chain of IKZF3 protein (Q16531 whole entry partner): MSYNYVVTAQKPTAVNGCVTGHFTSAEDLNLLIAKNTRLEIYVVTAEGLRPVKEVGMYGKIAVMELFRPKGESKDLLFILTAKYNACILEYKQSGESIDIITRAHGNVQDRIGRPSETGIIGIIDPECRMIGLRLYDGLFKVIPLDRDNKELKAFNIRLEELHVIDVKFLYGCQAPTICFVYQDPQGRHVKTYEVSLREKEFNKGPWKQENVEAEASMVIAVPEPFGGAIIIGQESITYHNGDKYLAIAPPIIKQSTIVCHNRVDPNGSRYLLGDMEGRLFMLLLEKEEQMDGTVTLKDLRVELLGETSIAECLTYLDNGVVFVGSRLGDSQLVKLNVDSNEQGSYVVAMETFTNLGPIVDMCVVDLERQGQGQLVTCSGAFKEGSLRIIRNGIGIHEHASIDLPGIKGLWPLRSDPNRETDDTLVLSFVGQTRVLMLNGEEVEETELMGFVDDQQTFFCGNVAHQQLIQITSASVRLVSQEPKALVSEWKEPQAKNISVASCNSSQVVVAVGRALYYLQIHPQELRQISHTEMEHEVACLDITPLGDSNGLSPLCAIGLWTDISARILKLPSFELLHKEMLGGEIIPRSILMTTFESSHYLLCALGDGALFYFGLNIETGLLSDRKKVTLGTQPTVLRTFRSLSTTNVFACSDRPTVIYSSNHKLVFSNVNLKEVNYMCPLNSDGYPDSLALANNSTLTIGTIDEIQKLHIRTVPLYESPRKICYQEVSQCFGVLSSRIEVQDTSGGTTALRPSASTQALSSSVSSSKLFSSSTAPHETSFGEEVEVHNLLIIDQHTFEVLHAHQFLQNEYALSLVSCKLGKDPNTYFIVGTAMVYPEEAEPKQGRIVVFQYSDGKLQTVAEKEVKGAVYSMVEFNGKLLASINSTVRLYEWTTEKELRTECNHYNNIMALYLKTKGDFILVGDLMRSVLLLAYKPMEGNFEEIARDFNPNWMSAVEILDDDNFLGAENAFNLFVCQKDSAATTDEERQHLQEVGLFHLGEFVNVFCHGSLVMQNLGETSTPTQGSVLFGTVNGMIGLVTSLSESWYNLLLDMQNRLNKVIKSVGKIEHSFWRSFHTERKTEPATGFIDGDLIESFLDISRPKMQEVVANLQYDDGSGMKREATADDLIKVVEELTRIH
Chain of human Cereblon WT GST-tagged protein (Q96SW2 whole entry): as the sequence (Q96SW2 whole entry) above
Chain of GSPT1 protein (P15170 whole entry): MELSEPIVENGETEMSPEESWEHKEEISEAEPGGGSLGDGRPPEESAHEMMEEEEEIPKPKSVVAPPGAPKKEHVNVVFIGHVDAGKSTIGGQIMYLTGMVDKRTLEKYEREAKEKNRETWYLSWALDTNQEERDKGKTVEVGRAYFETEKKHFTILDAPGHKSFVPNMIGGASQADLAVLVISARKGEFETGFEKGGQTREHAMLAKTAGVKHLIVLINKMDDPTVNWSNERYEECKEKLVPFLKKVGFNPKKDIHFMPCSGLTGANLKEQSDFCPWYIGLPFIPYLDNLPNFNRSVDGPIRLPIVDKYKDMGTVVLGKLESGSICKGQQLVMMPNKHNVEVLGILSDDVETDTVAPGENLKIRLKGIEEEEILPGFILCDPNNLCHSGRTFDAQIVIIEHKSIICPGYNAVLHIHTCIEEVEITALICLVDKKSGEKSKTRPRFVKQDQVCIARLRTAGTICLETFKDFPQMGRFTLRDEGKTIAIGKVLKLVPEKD
Chain of GSPT1 protein (Q96SW2 whole entry): as the sequence (Q96SW2 whole entry) above
Chain of GSPT1 protein (Q16531 whole entry partner): as the sequence (Q16531 whole entry partner) above
Chain of IKZF1 protein (Q13422 whole entry): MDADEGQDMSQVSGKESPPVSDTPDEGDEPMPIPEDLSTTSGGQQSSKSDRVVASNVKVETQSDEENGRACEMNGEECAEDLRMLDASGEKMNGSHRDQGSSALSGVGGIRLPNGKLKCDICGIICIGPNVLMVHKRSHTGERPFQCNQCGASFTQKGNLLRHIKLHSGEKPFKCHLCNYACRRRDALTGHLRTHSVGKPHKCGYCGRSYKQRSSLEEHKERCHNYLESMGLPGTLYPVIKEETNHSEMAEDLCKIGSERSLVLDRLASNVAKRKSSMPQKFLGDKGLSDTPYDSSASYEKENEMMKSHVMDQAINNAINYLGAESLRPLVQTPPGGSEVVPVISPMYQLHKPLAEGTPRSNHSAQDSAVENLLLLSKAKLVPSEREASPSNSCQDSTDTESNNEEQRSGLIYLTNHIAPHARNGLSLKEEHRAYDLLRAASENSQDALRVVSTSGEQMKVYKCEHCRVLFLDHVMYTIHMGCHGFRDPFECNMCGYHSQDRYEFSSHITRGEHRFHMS
Chain of IKZF1 protein (Q96SW2 whole entry): as the sequence (Q96SW2 whole entry) above
Chain of IKZF1 protein (Q16531 whole entry partner): as the sequence (Q16531 whole entry partner) above

As for `O=C1CCC(N2Cc3cc(CN4CC5(CCN(C(=O)c6ccccc6-c6ccc(Cl)cc6)CC5)C4)ccc3C2=O)C(=O)N1` (stereo not shown) [GT-05620, 3-(5-((7-(4′-chloro-[1,1′-biphenyl]-2-carbonyl)-2,7-diazaspiro[3.5]nonan-2-yl)methyl)-1-oxoisoindolin-2-yl)piperidine-2,6-dione], on IKZF1 protein (setting [2]), the “concentration at which significant degradation effects on IKZF1 protein are exhibited (FIG. 1)” value was under 3 nM. Further, the IC50 with MM.1S cells was 10 to 50 nM; in assay [1] it was 590 nM; with CCRF-CEM cells, 100 to 500 nM; in the assay on Mino cells, 100 to 500 nM. The “concentration at which significant degradation effects on GSPT1 protein are exhibited (FIG. 1)” value on GSPT1 protein (setting [2]) was under 3 nM. Moreover, the “concentration at which significant degradation effects on IKZF3 protein are exhibited (FIG. 1)” value on IKZF3 protein (setting [2]) is listed as under 3 nM.
Take `CC1(C)CCC(C(=O)N2CC3(CN(Cc4ccc5c(c4)CN(C4CCC(=O)NC4=O)C5=O)C3)C2)=C(c2ccc(Cl)cc2)C1` (stereo not shown) [GT-05681, 3-(5-((6-(4′-chloro-5,5-dimethyl-3,4,5,6-tetrahydro-[1,1′-biphenyl]-2-carbonyl)-2,6-diazaspiro[3.3]heptan-2-yl)methyl)-1-oxoisoindolin-2-yl)piperidine-2,6-dione]: the “residual substrate protein level, IKZF1” value on IKZF1 protein is recorded as “B (B represents a residual substrate protein level of >50%)”. Besides, the IC50 is 50 to 100 nM with MM.1S cells, 460 nM in assay [1], 100 to 500 nM in the assay on CCRF-CEM cells and 100 to 500 nM in the assay with Mino cells. For the same compound, the “residual substrate protein level, GSPT1” value at GSPT1 protein is on record as “A (A represents a residual substrate protein level of <50%)”. The “residual substrate protein level, IKZF3” value on IKZF3 protein is “A (A represents a residual substrate protein level of <50%)”.
Turning to `O=C1CCC(N2Cc3cc(CN4CCN(Cc5ccccc5-c5cncs5)CC4)ccc3C2=O)C(=O)N1` (stereo not shown) [GT-05684, 3-(1-oxo-5-((4-(2-(thiazol-5-yl)benzyl)piperazin-1-yl)methyl)isoindolin-2-yl)piperidine-2,6-dione], the “residual substrate protein level, IKZF1” value at IKZF1 protein is given as “A (A represents a residual substrate protein level of <50%)”. Also, the IC50 with MM.1S cells is 50 to 100 nM; in assay [1], 540 nM; in the assay on CCRF-CEM cells it was 100 to 500 nM; in the assay with Mino cells, 10 to 50 nM. Further, the “residual substrate protein level, GSPT1” value at GSPT1 protein is recorded as “A (A represents a residual substrate protein level of <50%)”. Moreover, at IKZF3 protein, the “residual substrate protein level, IKZF3” value is listed as “A (A represents a residual substrate protein level of <50%)”.
`O=C1CCC(N2Cc3cc(CN4CC5(C4)CN(Cc4ccccc4-c4ccc(Cl)cc4)C5)ccc3C2=O)C(=O)N1` (stereo not shown) [GT-05709, 3-(5-((6-((4′-chloro-[1,1′-biphenyl]-2-yl)methyl)-2,6-diazaspiro[3.3]heptan-2-yl)methyl)-1-oxoisoindolin-2-yl)piperidine-2,6-dione]: the “residual substrate protein level, IKZF1” value on IKZF1 protein is recorded as “A (A represents a residual substrate protein level of <50%)”. For the same compound, the IC50 was 10 to 50 nM in the assay on MM.1S cells, 660 nM in assay [1], 10 to 50 nM in the assay with CCRF-CEM cells and 50 to 100 nM in the assay with Mino cells. For the same compound, the “residual substrate protein level, GSPT1” value on GSPT1 protein is recorded as “A (A represents a residual substrate protein level of <50%)”. Besides, at IKZF3 protein, the “residual substrate protein level, IKZF3” value was “A (A represents a residual substrate protein level of <50%)”.
On to `Cc1ccc(C2=C(CN3CCN(Cc4ccc5c(c4)C(=O)N(C4CCC(=O)NC4=O)C5=O)CC3)CCC(C)(C)C2)cc1` (stereo not shown) [GT-05793, 2-(2,6-dioxopiperidin-3-yl)-5-((4-((4′,5,5-trimethyl-3,4,5,6-tetrahydro-[1,1′-biphenyl]-2-yl)methyl)piperazin-1-yl)methyl)isoindoline-1,3-dione], for which the “residual substrate protein level, IKZF1” value on IKZF1 protein is “B (B represents a residual substrate protein level of >50%)”. Besides, the IC50 with MM.1S cells, in the assay on CCRF-CEM cells and in the assay with Mino cells was 100 to 500 nM throughout. For the same compound, the “residual substrate protein level, GSPT1” value on GSPT1 protein is given as “A (A represents a residual substrate protein level of <50%)”. Further, on IKZF3 protein, the “residual substrate protein level, IKZF3” value was “A (A represents a residual substrate protein level of <50%)”.
